We go through one compound from patent US5019390A, “Anticancer agent--IMIC” (Research Corporation Technologies, Inc., priority 1987, dated 1991).

Each structure is given as a SMILES string.

Assay [1] relates to P388 leukemia cells. The experiment in a line: Viable P388 leukemia cells in cell culture (trypan blue). To be noted: 48 hours, 37° C.
For assay [2], the system named is P388 leukemia cells. The assay can be described thus: IP injection study in vivo, P388 leukemia in DBA/2 mice. The settings on record: in vivo experiment 4, daily IP injections.
Experimental: Mice were 26-27 days old. […] Purina mouse chow was supplied ad libitum.
In experiments 3 & 4 (Tables 12a & 13a) the DBA/2 mouse was used.
DNA was determined on total cells with no differentiation between viable and non-viable cells.
[3] abbreviates: in vitro experiment 1, 8 ml treatment.
Setting [4] is: in vitro experiment 2, 2 ml treatment.

In the case of `O=C(O)c1cc(=O)[nH]c(=O)[nH]1` [Orotic Acid, orotic acid], in the assay with P388 leukemia cells [1] (setting [3]), the “% Inhibition Based on Ringers Locke Control” value worked out at 11% and the “Numbers of Viable P388 Cells/ml” value is listed as “.66 × 10^6 ± 3500 Cells/ml”. Also, in the assay with P388 leukemia cells [1] (setting [4]), the “% Inhibition Based on Extraction Blank” value is listed as “Stimulation”, the “% Inhibition Based on PBS Control” value was “Stimulation” and the “Numbers of Viable P388 Cells/ml” value is on record as 1.90 × 10^6 ± 7100 Cells/ml. Besides, in the assay with P388 leukemia cells [2], the “% Inhibition (numbers of viable P388 cells)” value came to 38%, the “DNA Content” value came to 428 µg/mL and the “Numbers of Viable P388 Cells/ml” value was 4.20 × 10^7 ± 630000 cells/ml.
